Measurements reported in patent publication US20110190269A1, “GAMMA SECRETASE MODULATORS” (priority 2010, published 2011).
Where a name gives a salt, the structure may show the parent alone.

System: γ-secretase
Test: Cellular γ-secretase assay (inhibition of Aβ42 secretion)
Type: cell-based
Conditions: human neuroglioma H4 cells overexpressing human APP, 22 hrs incubation
Procedure, shortened: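 H4 neuroglioma cells overexpressing human APP got a ten-point compound dilution (0.4% DMSO final) for 22 h at 37 °C. Secreted Aβ42 in the supernatant was measured by electrochemiluminescence sandwich immunoassay (capture biotinylated 6E10, detection ruthenylated BAP15). IC50 came from a nonlinear regression fit.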

| Compound | EC50 [nM] |
| --- | --- |
| CCOC(=O)c1cc(-c2ccc(F)c(Cl)c2)n2nc(Nc3ccc(-n4cnc(C)c4)c(OC)c3)nc2n1 [Example 94, Ethyl 7-(3-chloro-4-fluorophenyl)-2-(3-methoxy-4-(4-methyl-1H-imidazol-1-yl)phenylamino)-[1,2,4]triazolo[1,5-a]pyrimidine-5-carboxylate] | 39 |
| COc1cc(Nc2nc3c(-c4cccc(CNC(=O)OC(C)(C)C)c4)cc(C)cn3n2)ccc1-n1cnc(C)c1 [Example 95, tert-Butyl 3-(2-(3-methoxy-4-(4-methyl-1H-imidazol-1-yl)phenylamino)-6-methyl-[1,2,4]triazolo[1,5-a]pyridin-8-yl)benzylcarbamate] | 84 |
| COc1cc(Nc2nc3c(C4=CCN(C(=O)OC(C)(C)C)CC4)cc(C)cn3n2)ccc1-n1cnc(C)c1 [Example 96, tert-Butyl 4-(2-(3-methoxy-4-(4-methyl-1H-imidazol-1-yl)phenylamino)-6-methyl-[1,2,4]triazolo[1,5-a]pyridin-8-yl)-5,6-dihydropyridine-1(2H)-carboxylate] | 93 |
| COc1cc(Nc2nc3c(-c4cccc(CN)c4)cc(C)cn3n2)ccc1-n1cnc(C)c1 [Example 97, 8-(3-(Aminomethyl)phenyl)-N-(3-methoxy-4-(4-methyl-1H-imidazol-1-yl)phenyl)-6-methyl-[1,2,4]triazolo[1,5-a]pyridin-2-amine dihydrochloride] | 470 |
| COc1cc(Nc2nc3c(-c4cccc(CNS(C)(=O)=O)c4)cc(C)cn3n2)ccc1-n1cnc(C)c1 [Example 98, N-(3-(2-(3-Methoxy-4-(4-methyl-1H-imidazol-1-yl)phenylamino)-6-methyl-[1,2,4]triazolo[1,5-a]pyridin-8-yl)benzyl)methanesulfonamide] | 390 |
| COc1cc(Nc2nc3c(N4CCOCC4)cccn3n2)ccc1-n1cnc(C)c1 [Example 101, N-(3-Methoxy-4-(4-methyl-1H-imidazol-1-yl)phenyl)-8-morpholino-[1,2,4]triazolo[1,5-a]pyridin-2-amine] | 227 |
| CCOC(=O)N1CC=C(c2cc(C)cn3nc(Nc4ccc(-n5cnc(C)c5)c(OC)c4)nc23)CC1 [Example 107, Ethyl 4-(2-(3-methoxy-4-(4-methyl-1H-imidazol-1-yl)phenylamino)-6-methyl-[1,2,4]triazolo[1,5-a]pyridin-8-yl)-5,6-dihydropyridine-1(2H)-carboxylate] | 356 |
| COc1cc(Nc2nc3c(C4=CCN(CC#N)CC4)cc(C)cn3n2)ccc1-n1cnc(C)c1 [Example 108, 2-(4-(2-(3-Methoxy-4-(4-methyl-1H-imidazol-1-yl)phenylamino)-6-methyl-[1,2,4]triazolo[1,5-a]pyridin-8-yl)-5,6-dihydropyridin-1(2H)-yl)acetonitrile] | 488 |
| COc1cc(Nc2nc3n(n2)C(c2ccccc2)CCO3)ccc1-n1cnc(C)c1 (stereo not drawn) [Example 109, N-(3-Methoxy-4-(4-methyl-1H-imidazol-1-yl)phenyl)-7-phenyl-6,7-dihydro-5H-[1,2,4]triazolo[5,1-b][1,3]oxazin-2-amine] | 270 |
| Cc1cn(-c2ccc(Nc3nc4c(-c5ccc(F)cc5Cl)cccn4n3)cc2F)cn1 [Example 110, 8-(2-chloro-4-fluorophenyl)-N-(3-fluoro-4-(4-methyl-1H-imidazol-1-yl)phenyl)-[1,2,4]triazolo[1,5-a]pyridin-2-amine] | 29 |
| Cc1cn(-c2c(F)cc(Nc3nc4c(-c5ccc(F)cc5Cl)cccn4n3)cc2F)cn1 [Example 111, 8-(2-chloro-4-fluorophenyl)-N-(3,5-difluoro-4-(4-methyl-1H-imidazol-1-yl)phenyl)-[1,2,4]triazolo[1,5-a]pyridin-2-amine] | 29 |
| COc1cc(Nc2nc3c(-c4ccc(F)cc4Cl)cccn3n2)cc(F)c1-n1cnc(C)c1 [Example 112, 8-(2-chloro-4-fluorophenyl)-N-(3-fluoro-5-methoxy-4-(4-methyl-1H-imidazol-1-yl)phenyl)-[1,2,4]triazolo[1,5-a]pyridin-2-amine] | 46 |
